PMC8331180, “Development of antibacterial compounds that constrain evolutionary pathways to resistance” (eLife, 2021)
Substitutions are numbered along the chain they refer to. Values joined by “and” are separate entries in the source; they are usually repeats but may differ in a detail not shown here. Equal values may be shown once. Read-outs that look alike come from different tables or passages of the source.

Columns and labels:
[1] = biological target: T1, E. coli WT DHFR (Escherichia coli, UniProt P0ABQ4); experiment: biochemical; conditions: for Ki: Ki value, E. coli WT DHFR, Ki converted from IC50; for inhibition at 200 µM: read-out: inhibition of DHFR catalytic activity
T1 construct: made in house
T1 sequence (P0ABQ4 1-159): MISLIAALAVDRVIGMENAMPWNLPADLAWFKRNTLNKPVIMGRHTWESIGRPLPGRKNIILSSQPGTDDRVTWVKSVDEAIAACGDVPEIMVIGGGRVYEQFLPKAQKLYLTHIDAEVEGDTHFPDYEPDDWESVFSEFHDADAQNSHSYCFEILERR

[2] = biological target: T2, E. coli DHFR P21L mutant (Escherichia coli, UniProt P0ABQ4, P21L); experiment: biochemical; conditions: for Ki: Ki value, E. coli P21L DHFR, Ki converted from IC50; for inhibition at 200 µM: read-out: inhibition of DHFR catalytic activity
T2 construct: made in house
T2 sequence (P0ABQ4 1-159 P21L): T1 sequence (P0ABQ4 1-159) with P21L

[3] = biological target: T3, E. coli DHFR A26T mutant (Escherichia coli, UniProt P0ABQ4, A26T); experiment: biochemical; conditions: for Ki: Ki value, E. coli A26T DHFR, Ki converted from IC50; for inhibition at 200 µM: read-out: inhibition of DHFR catalytic activity
T3 construct: made in house
T3 sequence (P0ABQ4 1-159 A26T): T1 sequence (P0ABQ4 1-159) with A26T

[4] = biological target: T4, E. coli DHFR L28R mutant (Escherichia coli, UniProt P0ABQ4, L28R); experiment: biochemical; conditions: for Ki: Ki value, E. coli L28R DHFR, Ki converted from IC50; for inhibition at 200 µM: read-out: inhibition of DHFR catalytic activity
T4 construct: made in house
T4 sequence (P0ABQ4 1-159 L28R): T1 sequence (P0ABQ4 1-159) with L28R

[5] = biological target: T5, E. coli DHFR P21L-A26T mutant (Escherichia coli, UniProt P0ABQ4, A26T/P21L); experiment: biochemical
T5 construct: made in house
T5 sequence (P0ABQ4 1-159 P21L/A26T): T1 sequence (P0ABQ4 1-159) with P21L, A26T

[6] = biological target: T6, E. coli DHFR P21L-L28R mutant (Escherichia coli, UniProt P0ABQ4, L28R/P21L); experiment: biochemical
T6 construct: made in house
T6 sequence (P0ABQ4 1-159 P21L/L28R): T1 sequence (P0ABQ4 1-159) with P21L, L28R

[7] = biological target: T7, E. coli DHFR A26T-L28R mutant (Escherichia coli, UniProt P0ABQ4, A26T/L28R); experiment: biochemical
T7 construct: made in house
T7 sequence (P0ABQ4 1-159 A26T/L28R): T1 sequence (P0ABQ4 1-159) with A26T, L28R

[8] = biological target: T8, Human DHFR (Homo sapiens, UniProt P00374); experiment: biochemical; format: biochemical; conditions: for Ki: Human WT DHFR, NT means no inhibition was detected at the maximal compound concentration tested
T8 construct: purchased Sigma Aldrich

[9] = tested on: E. coli strain with chromosomal P21L DHFR; experiment: microbe, parasite or virus in culture; format: cell-based; conditions: Escherichia coli, read-out: Bacterial growth inhibition IC50
[10] = tested on: E. coli strain with chromosomal A26T DHFR; experiment: microbe, parasite or virus in culture; format: cell-based; conditions: Escherichia coli, read-out: Bacterial growth inhibition IC50
[11] = tested on: E. coli strain with chromosomal L28R DHFR; experiment: microbe, parasite or virus in culture; format: cell-based; conditions: for IC50: Escherichia coli, read-out: Bacterial growth inhibition IC50
[12] = tested on: WT E. coli strain; experiment: microbe, parasite or virus in culture; conditions: Escherichia coli
[13] = tested on: CD15-3-evolved E. coli strains; experiment: microbe, parasite or virus in culture; format: cell-based; conditions: Escherichia coli
[14] = tested on: E. coli BW27783; format: cell-based
[15] = tested on: WT E. coli strain; conditions: read-out: Bacterial growth inhibition IC50; WT (naive) E. coli strain, M9 medium, 37°C
[16] = tested on: WT and evolved E. coli cells; experiment: DIC imaging of cell length; conditions: 42°C
[17] = single fixed concentration of 200 µM, WT DHFR
[18] = single fixed concentration of 200 µM, P21L DHFR
[19] = single fixed concentration of 200 µM, A26T DHFR
[20] = single fixed concentration of 200 µM, L28R DHFR
[21] = read-out: Bacterial growth inhibition IC50, WT (naive) E. coli strain, M9 medium, 37°C

| SMILES | Ki [1] | Ki [2] | Ki [3] | Ki [4] | IC50 [9] | IC50 [10] | IC50 [11] | IC50 [12, 21] | further results |
| --- | --- | --- | --- | --- | --- | --- | --- | --- | --- |
| COc1ccc([C@@H]2CC(c3c(O)[nH]c(=O)n(C)c3=O)=NN2)cc1OC [CD15] | 3.35 µM | 1.42 µM | 2.43 µM | 1.04 µM | 176 µM | 197 µM | 159 µM | 170 µM | inhibition at 200 µM [1, 17]: > 30%; inhibition at 200 µM [2, 18]: > 30%; inhibition at 200 µM [3, 19]: > 30%; inhibition at 200 µM [4, 20]: > 30%; Ki [5]: 3.26 µM; Ki [6]: 0.56 µM; Ki [7]: 0.61 µM; Ki [8]: 0.38 µM |
| COc1cc(Cc2cnc(N)nc2N)cc(OC)c1OC [TMP, trimethoprim, reference compound] | – | – | – | – | – | – | – | – | IC50 [12]: 0.4 µg/mL; IC50 ([12]; read-out: Bacterial growth inhibition IC50): 1.3 µM |
| CCOc1cc(C=C2C(=O)NC(=O)NC2=O)ccc1OCC(=O)O [CD17] | 8.2 µM and 8.18 µM | 3.7 µM | 6.7 µM and 6.73 µM | 3.7 µM and 3.65 µM | 5050 µM | 1920 µM | 932 µM | 1770 µM | inhibition at 200 µM [1, 17]: > 30%; inhibition at 200 µM [2, 18]: > 30%; inhibition at 200 µM [3, 19]: > 30%; inhibition at 200 µM [4, 20]: > 30%; Ki [5]: 9.2 µM; Ki [6]: 1.37 µM; Ki [7]: 2.04 µM; Ki [8]: 0.74 µM |
| COc1ccc([C@@H]2CC(c3c(O)[nH]c(=O)n(C)c3=O)=NN2)cc1O [CD15-2] | – | – | – | – | 125 µM | 119 µM | 88 µM | 129 µM | – |
| Cn1c(=O)[nH]c(O)c(C2=NN[C@H](c3ccc4c(c3)OCO4)C2)c1=O [CD15-4] | – | – | – | – | 92 µM | 123 µM | 67 µM | 302 µM | – |
| CSc1nc2nc(N)nc(N)c2s1 [CD20] | – | – | – | – | – | – | – | – | inhibition of DHFR catalytic activity [1, 17]: showed inhibition; inhibition of DHFR catalytic activity [2, 18]: showed inhibition; inhibition of DHFR catalytic activity [3, 19]: showed inhibition; inhibition of DHFR catalytic activity [4, 20]: not |
| COc1cc([C@H]2CC(=O)Nc3nc(N)[nH]c(=O)c32)ccc1O [CD08] | 6.9 ± 0.6 µM | 3.2 ± 0.4 µM | 4.9 ± 1.4 µM | 3.1 ± 0.6 µM | – | – | – | – | inhibition at 200 µM [1, 17]: > 30%; inhibition at 200 µM [2, 18]: > 30%; inhibition at 200 µM [3, 19]: > 30%; inhibition at 200 µM [4, 20]: > 30% |
| C[C@H](Oc1ccc(C=C2C(=O)NC(=O)NC2=O)cc1)C(=O)O [CD17-3] | – | – | – | – | 2840 µM | 2150 µM | 907 µM | 2950 µM | – |
| Cn1c(=O)[nH]c(O)c(C2=NN[C@H](c3cccc4ccccc34)C2)c1=O [CD15-3] | 5.52 µM | 2.51 µM | 3.48 µM | 0.98 µM | 57 µM | 73 µM | 48 µM | 71.8 µM | inhibitory activity against human DHFR ([8]; CD15-3 17.56–200 µM, 25°C): no inhibitory activity; efficacy relative to TMP on L28R E. coli variant strain ([11]; growth inhibition IC50, better than TMP): about 2.4 fold; IC50 ([13]; CD15-3-evolved strain Evolved 1, M9 media): 132 µM; IC50 ([13]; CD15-3-evolved strain Evolved 2, M9 media): 166 µM; IC50 ([13]; CD15-3-evolved strain Evolved 3, M9 media): 170 µM; IC50 ([13]; range over strains evolved under CD15-3, read-out: IC50 of evolved strains): 132 to 170 µM; effect of folA mix supplement on drug-induced growth inhibition ([14]; M9 media with folA mix): partially rescued; effect of inactive D27F DHFR overexpression on drug-induced growth inhibition ([14]; pBAD D27F, 0.005% arabinose): no growth recovery; effect of WT DHFR overexpression on drug-induced growth inhibition ([14]; pBAD folA, 0.005% arabinose): partially rescued growth; IC50 [15]: 72 µM; median cell length ([16]; WT cells treated at IC50 concentration, 4 hours): 2.34 µm; median cell length ([16]; evolved cells treated at IC50 concentration): 1.26 µm; IC50 ([12]; read-out: IC50 against WT and TMP-resistant strains): 50 to 75 µM |
| Cc1cc(NS(=O)(=O)c2ccc(N)cc2)no1 [Sulfamethoxazole, reference compound] | – | – | – | – | – | – | – | – | IC50 ([13]; CD15-3-evolved cells, cross resistance test, growth rate): 6.7 µM; IC50 [12]: 2.9 µM |
| O=C(O)COc1c(Cl)cc(C=C2C(=O)NC(=O)NC2=O)cc1Cl [CD17-4] | – | – | – | – | – | – | 1860 µM | – | – |
| COc1cc([C@@H]2CC(c3c(O)[nH]c(=O)n(C)c3=O)=NN2)cc(OC)c1OC [CD15-6] | – | – | – | – | 159 µM | 172 µM | 167 µM | 175 µM | – |
